From paper PMC7162861, “Synthesis, cytotoxicity, pharmacokinetic profile, binding with DNA and BSA of new imidazo[1,2-a]pyrazine-benzo[d]imidazol-5-yl hybrids” (Scientific Reports, 2020)

Tests used:
MOLT-4 = assay: NCI cytotoxicity screen, Leukemia panel; format: cell-based; conditions: Homo sapiens, MOLT-4, MOLT-4; single dose 10 µM; negative = lethal; read-out: Percent growth inhibition
Experimental: (§1) Cytotoxicity was performed at National Cancer Institute (NCI), Bethesda, USA as per their protocols.

HL-60(TB) = assay: NCI cytotoxicity screen, Leukemia panel; format: cell-based; conditions: Homo sapiens, HL-60, HL-60(TB); single dose 10 µM; negative = lethal; read-out: Percent growth inhibition
Experimental: as §1

SR = assay: NCI cytotoxicity screen, Leukemia panel; format: cell-based; conditions: Homo sapiens, single dose 10 µM, negative = lethal, read-out: Percent growth inhibition
Experimental: as §1

CCRF-CEM = assay: NCI cytotoxicity screen, Leukemia panel; format: cell-based; conditions: Homo sapiens, single dose 10 µM, negative = lethal, read-out: Percent growth inhibition
Experimental: as §1

TK-10 = assay: NCI cytotoxicity screen, Renal Cancer panel; format: cell-based, human; conditions: Homo sapiens, single dose 10 µM, negative = lethal, read-out: Percent growth inhibition
Experimental: as §1

786-0 = assay: NCI cytotoxicity screen, Renal Cancer panel; format: cell-based, human; conditions: Homo sapiens, single dose 10 µM, negative = lethal, read-out: Percent growth inhibition
Experimental: as §1

NCI-H226 = assay: NCI cytotoxicity screen, Non-Small Cell Lung Cancer panel; format: cell-based, human; conditions: Homo sapiens, single dose 10 µM, negative = lethal, read-out: Percent growth inhibition
Experimental: as §1

NCI-522 = assay: as above; format: cell-based, human; conditions: Homo sapiens; NCI-522; single dose 10 µM; negative = lethal; read-out: Percent growth inhibition
Experimental: as §1

NCI-H322M = assay: as above; format: cell-based, human; conditions: Homo sapiens, single dose 10 µM, negative = lethal, read-out: Percent growth inhibition
Experimental: as §1

NCI-H23 = assay: as above; format: cell-based, human; conditions: Homo sapiens, single dose 10 µM, negative = lethal, read-out: Percent growth inhibition
Experimental: as §1

M14 = assay: NCI cytotoxicity screen, Melanoma panel; format: cell-based, human; conditions: Homo sapiens, single dose 10 µM, negative = lethal, read-out: Percent growth inhibition
Experimental: as §1

LOX IMVI = assay: NCI cytotoxicity screen, Melanoma panel; format: cell-based, human; conditions: Homo sapiens, single dose 10 µM, negative = lethal, read-out: Percent growth inhibition
Experimental: as §1

UACC-62 = assay: NCI cytotoxicity screen, Melanoma panel; format: cell-based, human; conditions: Homo sapiens, single dose 10 µM, negative = lethal, read-out: Percent growth inhibition
Experimental: as §1

OVCAR-5 = assay: NCI cytotoxicity screen, Ovarian Cancer panel; format: cell-based; conditions: Homo sapiens, single dose 10 µM, negative = lethal, read-out: Percent growth inhibition
Experimental: as §1

SK-OV-3 = assay: NCI cytotoxicity screen, Ovarian Cancer panel; format: cell-based; conditions: Homo sapiens, single dose 10 µM, negative = lethal, read-out: Percent growth inhibition
Experimental: as §1

OVCAR-8 = assay: NCI cytotoxicity screen, Ovarian Cancer panel; format: cell-based; conditions: Homo sapiens, single dose 10 µM, negative = lethal, read-out: Percent growth inhibition
Experimental: as §1

IGROV1 = assay: NCI cytotoxicity screen, Ovarian Cancer panel; format: cell-based; conditions: Homo sapiens, IGROV-1, single dose 10 µM, negative = lethal, read-out: Percent growth inhibition
Experimental: as §1

OVCAR-4 = assay: NCI cytotoxicity screen, Ovarian Cancer panel; format: cell-based; conditions: Homo sapiens; OVCAR-4; single dose 10 µM; negative = lethal; read-out: Percent growth inhibition
Experimental: as §1

NCI/ADR-RES = assay: NCI cytotoxicity screen, Ovarian Cancer panel; format: cell-based; conditions: Homo sapiens, single dose 10 µM, negative = lethal, read-out: Percent growth inhibition
Experimental: as §1

SN12C = assay: NCI cytotoxicity screen, Renal Cancer panel; format: cell-based; conditions: Homo sapiens, single dose 10 µM, negative = lethal, read-out: Percent growth inhibition
Experimental: as §1

ACHN = assay: NCI cytotoxicity screen, Renal Cancer panel; format: cell-based; conditions: Homo sapiens, single dose 10 µM, negative = lethal, read-out: Percent growth inhibition
Experimental: as §1

RXF 393 = assay: NCI cytotoxicity screen, Renal Cancer panel; format: cell-based; conditions: Homo sapiens, single dose 10 µM, negative = lethal, read-out: Percent growth inhibition
Experimental: as §1

UO-31 = assay: NCI cytotoxicity screen, Renal Cancer panel; format: cell-based; conditions: Homo sapiens, single dose 10 µM, negative = lethal, read-out: Percent growth inhibition
Experimental: as §1

CAKI-1 = assay: NCI cytotoxicity screen, Renal Cancer panel; format: cell-based; conditions: Homo sapiens; CAKI-1; single dose 10 µM; negative = lethal; read-out: Percent growth inhibition
Experimental: as §1

MDA-MB-231/ATCC = assay: NCI cytotoxicity screen, Breast Cancer panel; format: cell-based; conditions: Homo sapiens, MDA-MB-231, read-out: Percent growth inhibition
Experimental: as §1

MCF7 = assay: NCI cytotoxicity screen, Breast Cancer panel; format: cell-based; conditions: Homo sapiens, single dose 10 µM, negative = lethal, read-out: Percent growth inhibition
Experimental: as §1

HS 578 T = assay: NCI cytotoxicity screen, Breast Cancer panel; format: cell-based; conditions: Homo sapiens; HS 578T; single dose 10 µM; negative = lethal; read-out: Percent growth inhibition
Experimental: as §1

T-47D = assay: NCI cytotoxicity screen, Breast Cancer panel; format: cell-based; conditions: Homo sapiens, T47D, T-47D; single dose 10 µM; negative = lethal; read-out: Percent growth inhibition
Experimental: as §1

MDA-MB-468 = assay: NCI cytotoxicity screen, Breast Cancer panel; format: cell-based; conditions: Homo sapiens, single dose 10 µM, negative = lethal, read-out: Percent growth inhibition
Experimental: as §1

BT-549 = assay: NCI cytotoxicity screen, Breast Cancer panel; format: cell-based; conditions: Homo sapiens, single dose 10 µM, negative = lethal, read-out: Percent growth inhibition
Experimental: as §1

HOP-92 = assay: NCI cytotoxicity screen, Non-Small Cell Lung Cancer panel; format: cell-based; conditions: Homo sapiens, single dose 10 µM, negative = lethal, read-out: Percent growth inhibition
Experimental: as §1

HOP-62 = assay: as above; format: cell-based; conditions: Homo sapiens, single dose 10 µM, negative = lethal, read-out: Percent growth inhibition
Experimental: as §1

NCI-H460 = assay: as above; format: cell-based; conditions: Homo sapiens, single dose 10 µM, negative = lethal, read-out: Percent growth inhibition
Experimental: as §1

A549/ATCC = assay: as above; format: cell-based; conditions: Homo sapiens; A549/ATCC; single dose 10 µM; negative = lethal; read-out: Percent growth inhibition
Experimental: as §1

EXVX = assay: as above; format: cell-based; conditions: Homo sapiens; EXVX; single dose 10 µM; negative = lethal; read-out: Percent growth inhibition
Experimental: as §1

DU-145 = assay: NCI cytotoxicity screen, Prostate Cancer panel; format: cell-based, human; conditions: Homo sapiens, single dose 10 µM, negative = lethal, read-out: Percent growth inhibition
Experimental: as §1

PC-3 = assay: NCI cytotoxicity screen, Prostate Cancer panel; format: cell-based, human; conditions: Homo sapiens, single dose 10 µM, negative = lethal, read-out: Percent growth inhibition
Experimental: as §1

[1] = Experimental log P, shake-flask method; format: physicochemical; conditions: n-octanol/phosphate buffer pH 7.4, read-out: Exp. Log P
Experimental: Partition coefficients or experimental log P values of all synthesized compounds (9–23, 30 and 31) were calculated using the shake-flask method. Log P values were determined using n-octanol and phosphate buffer (pH = 7.4) at 10:1 ratio of volumes. Stock solutions (10^−3 M) of compounds were prepared in DMSO. Glass vials were used to make final solutions i.e. stock solution (250 µL) and phosphate buffer (125 µL). To record the absorbance, wavelength was selected based on λmax of the respective compound. Initial absorbance (Ai) for every compound was noted consuming the stock solution in the buffer phase. Now added n-octanol to every vial and shaken well using a mechanical shaker for 50 minutes. To get separation of both phases, glass vials were centrifuged for 35 min. at 2500 rpm. Then, the layer of octanol was separated from glass vial. The final absorbance (Af) of each compound was recorded by using the buffer layer. The values of P for compounds were determined by the following equation (Eq. 8):8 P=Ai−Af/Af×Vw/Vo

OVCAR-3 = assay: NCI cytotoxicity screen, Ovarian Cancer panel; format: cell-based, human; conditions: Homo sapiens; OVCAR-3; single dose 10 µM; negative = lethal; read-out: Percent growth inhibition
Experimental: as §1

HCC-2998 = assay: NCI cytotoxicity screen, Colon Cancer panel; format: cell-based, human; conditions: Homo sapiens; HCC-2998; single dose 10 µM; negative = lethal; read-out: Percent growth inhibition
Experimental: as §1

KM12 = assay: NCI cytotoxicity screen, Colon Cancer panel; format: cell-based, human; conditions: Homo sapiens, single dose 10 µM, negative = lethal, read-out: Percent growth inhibition
Experimental: as §1

SW-620 = assay: NCI cytotoxicity screen, Colon Cancer panel; format: cell-based, human; conditions: Homo sapiens, single dose 10 µM, negative = lethal, read-out: Percent growth inhibition
Experimental: as §1

A498 = assay: NCI cytotoxicity screen, Renal Cancer panel; format: cell-based; conditions: Homo sapiens, single dose 10 µM, negative = lethal, read-out: Percent growth inhibition
Experimental: as §1

c1csc(-c2cn3ccnc3c(-c3ccc4c(c3)ncn4C3CCCCC3)n2)c1 [Compound 22, 8-(1-cyclohexyl-1H-benzo[d]imidazol-5-yl)-6-(thiophen-2-yl)imidazo[1,2-a]pyrazine]
inhibition at 10 µM (MOLT-4): 12.4%
inhibition at 10 µM (HL-60(TB)): 0.87%
inhibition at 10 µM (SR): 15%
inhibition at 10 µM (CCRF-CEM): < 1%
inhibition at 10 µM (TK-10): < 1%
inhibition at 10 µM (786-0): 0.59%
inhibition at 10 µM (NCI-H226): < 1%
inhibition at 10 µM (NCI-522): 14.6%
inhibition at 10 µM (NCI-H322M): 0.45%
inhibition at 10 µM (NCI-H23): 5.56%
inhibition at 10 µM (M14): < 1%
inhibition at 10 µM (LOX IMVI): 1.01%
inhibition at 10 µM (UACC-62): 0.23%
inhibition at 10 µM (OVCAR-5): < 1%
inhibition at 10 µM (SK-OV-3): < 1%
inhibition at 10 µM (OVCAR-8): < 1%
inhibition at 10 µM (IGROV1): < 1%
inhibition at 10 µM (OVCAR-4): < 1%
inhibition at 10 µM (NCI/ADR-RES): 6.79%
inhibition at 10 µM (SN12C): < 1%
inhibition at 10 µM (ACHN): < 1%
inhibition at 10 µM (RXF 393): < 1%
inhibition at 10 µM (UO-31): 16.4%
inhibition at 10 µM (CAKI-1): < 1%
inhibition at 10 µM (MDA-MB-231/ATCC): 7.47%
inhibition at 10 µM (MCF7): 34%
inhibition at 10 µM (HS 578 T): < 1%
inhibition at 10 µM (T-47D): 37.3%
inhibition at 10 µM (MDA-MB-468): 28.3%
inhibition at 10 µM (BT-549): < 1%
inhibition at 10 µM (HOP-92): < 1%
inhibition at 10 µM (HOP-62): 0.44%
inhibition at 10 µM (NCI-H460): < 1%
inhibition at 10 µM (A549/ATCC): 1.63%
inhibition at 10 µM (EXVX): 3.54%
melting point: 187 to 190 °C
inhibition at 10 µM (DU-145): 3.63%
inhibition at 10 µM (PC-3): 7.16%
logP [1]: 1.37
inhibition at 10 µM (OVCAR-3): 0.91%
inhibition at 10 µM (HCC-2998): < 1%
inhibition at 10 µM (KM12): 6.84%
inhibition at 10 µM (SW-620): < 1%

c1cn2cc(-c3ccc4c(c3)ncn4C3CCCCC3)nc(-c3ccc4c(c3)ncn4C3CCCCC3)c2n1 [Compound 30, 6,8-bis(1-cyclohexyl-1H-benzo[d]imidazol-5-yl)imidazo[1,2-a]pyrazine]
inhibition at 10 µM (MOLT-4): 43.6%
inhibition at 10 µM (HL-60(TB)): 32.9%
inhibition at 10 µM (SR): 17.1%
inhibition at 10 µM (CCRF-CEM): 35.1%
inhibition at 10 µM (TK-10): < 1%
inhibition at 10 µM (786-0): 13.9%
inhibition at 10 µM (NCI-H226): 13.1%
inhibition at 10 µM (NCI-522): 17.7%
inhibition at 10 µM (NCI-H322M): < 1%
inhibition at 10 µM (NCI-H23): 4.61%
inhibition at 10 µM (M14): < 1%
inhibition at 10 µM (LOX IMVI): 11.7%
inhibition at 10 µM (UACC-62): 12.4%
inhibition at 10 µM (OVCAR-5): < 1%
inhibition at 10 µM (SK-OV-3): 11.8%
inhibition at 10 µM (OVCAR-8): 11.6%
inhibition at 10 µM (IGROV1): < 1%
inhibition at 10 µM (OVCAR-4): < 1%
inhibition at 10 µM (NCI/ADR-RES): 4.12%
inhibition at 10 µM (A498): < 1%
inhibition at 10 µM (SN12C): 13.9%
inhibition at 10 µM (ACHN): 4.08%
inhibition at 10 µM (RXF 393): 4.3%
inhibition at 10 µM (UO-31): 26.8%
inhibition at 10 µM (CAKI-1): 9.21%
inhibition at 10 µM (MDA-MB-231/ATCC): 16.8%
inhibition at 10 µM (MCF7): 23.9%
inhibition at 10 µM (HS 578 T): 18.9%
inhibition at 10 µM (T-47D): 34.7%
inhibition at 10 µM (MDA-MB-468): 3.28%
inhibition at 10 µM (BT-549): 5.9%
inhibition at 10 µM (HOP-62): 20.8%
inhibition at 10 µM (NCI-H460): 1.35%
inhibition at 10 µM (A549/ATCC): 4.93%
inhibition at 10 µM (EXVX): 9.56%
melting point: 205 to 209 °C
inhibition at 10 µM (DU-145): 6.22%
inhibition at 10 µM (PC-3): 27.9%
logP [1]: 2.16
inhibition at 10 µM (OVCAR-3): < 1%
inhibition at 10 µM (HCC-2998): < 1%
inhibition at 10 µM (KM12): 56.2%
inhibition at 10 µM (SW-620): < 1%
